As a reminder, the IC50 is the concentration needed to halve the response being measured. A word on the inhibition: it is the drop in the measured response relative to a control, in per cent.

From patent US20180319762A1, “5-deoxy-irilin B Having Angiotensin-I-converting enzyme Inhibition Activity derived from Salicornia SPP. and Composition Containing the Same” (PHYTO CORPORATION, priority 2015, published 2018) come the findings set out here.

Data set [1] in a line: Solubility (physical and chemical properties of Compound A). In kind it is physicochemical.
Data set [2] has as its target T1, angiotensin-I-converting enzyme (ACE) (Oryctolagus cuniculus, UniProt P12822).
T1 construct: tissue Sigma; host or cells: rabbit lung (acetone powder, borate buffer extract supernatant)
T1 sequence (P12822 34-1310): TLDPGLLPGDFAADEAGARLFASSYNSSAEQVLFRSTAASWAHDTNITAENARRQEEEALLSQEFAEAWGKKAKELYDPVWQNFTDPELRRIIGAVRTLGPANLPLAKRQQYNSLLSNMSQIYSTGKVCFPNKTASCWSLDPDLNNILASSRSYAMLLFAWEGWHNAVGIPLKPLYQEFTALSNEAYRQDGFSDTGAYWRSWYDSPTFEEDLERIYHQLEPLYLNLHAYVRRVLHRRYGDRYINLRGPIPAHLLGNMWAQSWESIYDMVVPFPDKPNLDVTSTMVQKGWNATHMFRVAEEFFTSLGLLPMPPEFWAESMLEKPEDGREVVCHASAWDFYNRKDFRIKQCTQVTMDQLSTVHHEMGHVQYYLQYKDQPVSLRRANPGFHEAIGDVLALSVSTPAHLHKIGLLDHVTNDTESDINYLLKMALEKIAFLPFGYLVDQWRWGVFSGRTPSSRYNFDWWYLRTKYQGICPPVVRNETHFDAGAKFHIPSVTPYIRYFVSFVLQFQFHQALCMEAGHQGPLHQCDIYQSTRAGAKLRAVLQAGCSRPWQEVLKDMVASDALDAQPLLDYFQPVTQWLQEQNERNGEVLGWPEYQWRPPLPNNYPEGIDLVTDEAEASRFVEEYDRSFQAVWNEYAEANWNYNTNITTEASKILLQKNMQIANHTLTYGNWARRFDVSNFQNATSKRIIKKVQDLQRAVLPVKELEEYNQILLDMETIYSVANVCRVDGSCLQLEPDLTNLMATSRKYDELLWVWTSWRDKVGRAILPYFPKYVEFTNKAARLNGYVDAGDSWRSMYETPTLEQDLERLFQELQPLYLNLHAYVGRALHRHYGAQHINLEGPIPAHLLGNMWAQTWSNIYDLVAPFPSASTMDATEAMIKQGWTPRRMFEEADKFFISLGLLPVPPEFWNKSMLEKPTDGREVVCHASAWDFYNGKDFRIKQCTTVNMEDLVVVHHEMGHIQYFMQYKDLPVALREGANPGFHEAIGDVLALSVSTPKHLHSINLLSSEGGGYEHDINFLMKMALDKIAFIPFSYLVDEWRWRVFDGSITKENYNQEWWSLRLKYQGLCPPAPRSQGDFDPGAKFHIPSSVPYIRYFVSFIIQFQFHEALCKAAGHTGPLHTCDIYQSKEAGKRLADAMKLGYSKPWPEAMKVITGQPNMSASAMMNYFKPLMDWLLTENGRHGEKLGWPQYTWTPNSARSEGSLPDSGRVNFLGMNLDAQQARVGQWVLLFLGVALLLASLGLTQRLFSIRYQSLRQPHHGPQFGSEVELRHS
Put plainly: ACE (Angiotensin I-Converting Enzyme) inhibition activity, Hip-His-Leu substrate, absorbance at 228 nm. In kind it is biochemical, rabbit. As for the experimental part:
As shown in the results of Table 8, the hydrolyzed Salicornia salty sauces had very high functional polyphenol and flavonoid contents compared to the non-hydrolyzed salty sauce. Thus, as an indicator for antihypertensive activity, angiotensin-I-converting enzyme (ACE) inhibition activity was evaluated. As the test sample, each salty sauce, adjusted to a salt content of 14%, was added at a concentration of 1 to 5 μL/mL to the reaction solution, and then measured.
Angiotensin-II, produced by ACE, promotes an increase in blood pressure and secretion of antidiuretic hormone aldosterone, and suppresses the emission of water and sodium to thus increase blood circulation, thus causing hypertension. […] Specifically, 1 g of a rabbit lung acetone powder (Sigma Col) in 50 μL of the sample was mixed with 25 μL (2.5 unit) of an ACE supernatant dissolved in a 0.1 M sodium borate buffer containing 10 mL of 0.3 M NaCl, 50 μL of a 0.1 M sodium borate buffer (pH 8.3) containing 0.3 M NaCl, and 25 μL of a sample solution at various concentrations (0.25, 0.5 and 1.0 mg/mL), and then preincubated at 37° C. for 10 min. Further, 50 μL of a Hip-His-Leu substrate solution was added, and the resulting mixture was allowed to react at 37° C. for 30 min, after which the reaction was stopped by the addition of 100 μL of 1 N HCl. 1 mL of ethyl acetate was added, and the resulting reaction mixture was agitated in a vortex for 1 min and centrifuged at 3,000 g for 15 min, after which 0.8 mL of the separated ethyl acetate supernatant (extract) was recovered. The supernatant was warmed in a hood and thus completely volatilized, and was then dissolved in 1 mL of a sodium borate buffer under the same conditions, after which absorbance at 228 nm was measured and ACE inhibition activity was calculated.
During purification, the organic solvent fractions (at concentrations of 10, 25, 50 μg/mL) were measured for ACE inhibition activity in the same manner as in Example 3-2.

In the case of `COc1cc2c(=O)c(-c3ccccc3O)coc2cc1O` [EDS-LH-7b, 7-hydroxy-3-(2′-hydroxyphenyl)-6-methoxy-4H-1-benzopyran-4-one], the Solubility entry is “Soluble” in data set [1] (in methanol, ethanol, ethyl acetate, and chloroform); “insoluble” in data set [1] (in water). For the same molecule, the IC50 in data set [2] was 15.8 µM. In addition, the inhibition at 10 µg/mL in data set [2] (at a concentration of 10 μg/mL) is at least 95%. The “ACE inhibition activity, rank among compared samples/fractions” value in data set [2] (compared with the other sauces or with the other fractions of the same purification step) is “the greatest”.

For the molecule `O=c1cc(-c2ccc(O)c(O)c2)oc2cc(O)cc(O)c12` [Luteolin, reference compound], the IC50 in data set [2] is 93.3 µM.
